In PubChem BioAssay (NCI):
Values joined by “and” are separate entries in the source; they are usually repeats but may differ in a detail not shown here. Equal entries are not always repeated.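 Tested at 5 concentrations; 48 h exposure; 96-well plates; endpoints linearly interpolated, else capped at highest concentration. GI50 marks 50% less growth. TGI: concentration producing complete growth inhibition.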

Experiments:
Assay in all cases: NCI tumour cell line growth inhibition, 48 h
[1] = test system: SW-620 colon
[2] = test system: NCI-H522 lung
[3] = test system: NCI-H23 lung
[4] = test system: MALME-3M melanoma
[5] = test system: SN12C renal
[6] = test system: SK-OV-3 ovarian
[7] = test system: SF-295 CNS
[8] = test system: HCC-2998 colon
[9] = test system: HOP-92 NSCLC
[10] = test system: HOP-62 NSCLC

| Structure (SMILES) | TGI [1] | TGI [2] | TGI [3] | TGI [4] | TGI [5] | TGI [6] | TGI [7] | TGI [8] | TGI [9] | TGI [10] | GI50 [1] | GI50 [2] | GI50 [3] | GI50 [4] | GI50 [5] | GI50 [6] | GI50 [7] | GI50 [8] | GI50 [9] | GI50 [10] |
| --- | --- | --- | --- | --- | --- | --- | --- | --- | --- | --- | --- | --- | --- | --- | --- | --- | --- | --- | --- | --- |
| Nc1n[nH]c(=O)c2c1c(Br)cn2C1OC(CO)C(O)C1O (configuration not stated) | > 100 µM | 25.2 µM | 25 µM | 54.7 µM | 43.5 µM | > 100 µM | > 90.2 µM | 24.7 µM | 7.59 µM | 98.2 µM |  |  |  |  |  |  |  |  |  |  |
| O=C1c2ccccc2CC1C1(O)C(=O)Nc2c(Cl)cc(Cl)cc21 (configuration not stated) | > 100 µM | 47.3 µM | > 100 µM | > 100 µM | > 100 µM | > 100 µM | > 100 µM | > 100 µM | > 100 µM | > 100 µM |  |  |  |  |  |  |  |  |  |  |
| COC(=O)C1CCC2(CC1)NC(=O)NC2=O (configuration not stated) | > 100 µM | > 100 µM | > 100 µM | > 100 µM | > 100 µM | > 100 µM | > 100 µM | > 100 µM | > 100 µM | > 100 µM |  |  |  |  |  |  |  |  |  |  |
| C[CH2][Ge]1([CH2]C)[CH2]CC2(CCN(CCCN(C)C)C2)C[CH2]1 | 2.89 µM and 2.31 µM | 2.88 µM and 24.4 µM | 8.19 µM and 8.41 µM | 1.96 µM and 4.33 µM | 4.62 µM | 6.11 µM and 9.62 µM | 3.17 µM and 3.67 µM | 0.543 µM and 3.8 µM | 1.65 µM and 1.34 µM | 1.89 µM and 9.25 µM | 1.46 µM and 1.65 µM | 1.3 µM and 11.2 µM | 2.47 µM and 4.11 µM | 1.05 µM and 2.65 µM | 1.38 µM | 2.64 µM and 3.59 µM | 1.7 µM and 2.42 µM | 0.21 µM and 1.68 µM | 0.201 µM and 1 µM | 0.949 µM and 4.87 µM |
| C#Cc1cccc(NC(=O)Nc2cccc(NC(=O)CCl)c2)c1 | 37.3 µM | 48.6 µM | 31.2 µM | > 82.5 µM | 49.9 µM | > 82.5 µM | > 82.5 µM | > 82.5 µM | > 82.5 µM | > 82.5 µM | 16.9 µM | 15.2 µM | 14 µM | 20.7 µM | 17.3 µM | 46.5 µM | > 82.5 µM | > 82.5 µM | > 82.5 µM | 63.6 µM |
| O=C1/C(=C/c2ccc([N+](=O)[O-])s2)Oc2ccc(Cl)cc21 | 0.49 µM | 0.435 µM | 1.82 µM | 1.38 µM | 1.79 µM | 4.42 µM | 2.98 µM | 1.33 µM | 0.519 µM | 3 µM | 0.206 µM | 0.198 µM | 0.592 µM | 0.526 µM | 0.593 µM | 2.1 µM | 0.999 µM | 0.515 µM | 0.176 µM | 0.775 µM |
| CCOc1ccccc1Nc1nc(C)c(C(=O)CC(=O)C(=O)Nc2ccccc2)s1 | > 100 µM | 84.8 µM | > 100 µM | > 100 µM | > 100 µM | > 100 µM | > 100 µM | > 100 µM | > 100 µM | > 100 µM |  |  |  |  |  |  |  |  |  |  |
| C[As](C)SCC(COC(=O)c1ccccc1)OC(=O)c1ccccc1 (configuration not stated) | 1.66 µM | 2.92 µM | 0.125 µM | 0.0345 µM | 1.23 µM | 18.1 µM | 1.35 µM | 0.232 µM | 1.74 µM | 1.86 µM | 0.0314 µM | 0.0836 µM | 0.05 µM |  | 0.23 µM | 3.16 µM |  | 0.104 µM | 0.216 µM | 0.742 µM |
| N#Cc1ccccc1C#C/C=C\C#Cc1cnccn1 | > 41.9 µM | > 65.9 µM | 22.4 µM | 81.4 µM | 41.5 µM | > 100 µM | > 25 µM | 28.2 µM | > 28.4 µM | > 64.6 µM | 5.85 µM | 18 µM | 7.04 µM | 22.3 µM | 13.8 µM | 52.7 µM | 6 µM | 4.79 µM |  | 29.3 µM |
| O=C1[C@@H]2C3C=CC([C@H]4C(=O)N(CO)C(=O)[C@@H]34)[C@@H]2C(=O)N1CO | > 65.5 µM | > 56.5 µM | > 100 µM | > 100 µM | > 100 µM | > 100 µM | > 100 µM | > 100 µM | > 100 µM | > 100 µM |  |  |  |  |  |  |  |  |  |  |
| COc1cc(/C=C/C(=O)C(C)(C)C)cc(OC)c1OC | 81.2 µM | > 100 µM | 94.4 µM | > 100 µM | > 100 µM | > 100 µM | > 100 µM | > 100 µM | > 100 µM | > 100 µM |  |  |  |  |  |  |  |  |  |  |
| O=c1c2ccccc2nc(-c2ccccc2Cl)n1NC1OC(CO)C(O)C(O)C1O (configuration not stated) | > 100 µM | > 100 µM | > 100 µM | > 100 µM | > 100 µM | > 100 µM | > 100 µM | > 100 µM | > 100 µM | > 100 µM |  |  |  |  |  |  |  |  |  |  |
| O=C(/C=C/CN1CCCCC1)Nc1cc2c(Nc3ccc(F)c(Cl)c3F)ncnc2cc1OCCOC(F)F | 8.17 µM | 1.8 µM | 6.99 µM | 2.91 µM | 5.93 µM | 0.263 µM | 6.42 µM | 3.97 µM | 1.12 µM | 7.04 µM | 1.49 µM | 0.0493 µM | 1.67 µM | 1.18 µM | 0.318 µM | < 0.0201 µM | 1.72 µM | 1.6 µM | 0.0548 µM | 1.64 µM |
| CCCCCCCCCCCCOC1C(C(COC2OC(C(O)CO)C3OC(C)(C)OC23)OC(=O)Nc2ccc([N+](=O)[O-])cc2)OC2OC(C)(C)OC21 (configuration not stated) | 3.33 µM | 3.9 µM | 28.2 µM | 9.64 µM | 3.52 µM | 30.8 µM | 5.48 µM | 25.1 µM | 14.7 µM | 3.8 µM | 1.79 µM | 1.92 µM | 12.6 µM | 3.16 µM | 1.78 µM | 15.9 µM | 2.21 µM | 11.6 µM | 3.82 µM | 1.95 µM |
| CC(=O)/C=C\C(=O)NNS(=O)(=O)c1ccc(C)cc1 | > 100 µM | > 100 µM | > 100 µM | > 100 µM | > 100 µM | > 100 µM | > 100 µM | > 100 µM | > 100 µM | > 100 µM |  |  |  |  |  |  |  |  |  |  |
